# Measured values: paper PMC11299271 (BMC Pharmacology & Toxicology, 2024)
# “And” between values parts separate entries of the source, which are not always exact repeats. Equal entries are not always repeated. Where two headings read alike, the source gives them in different places.
# How the values were obtained:
# [1] = Plasma glucose concentration in T2DM rats (glucose oxidase method); type: in vivo
# Experimental: Glucose concentration in the plasma was determined by Glucose test kit (glucose oxidase method, Rongsheng biological Pharmaceutical Co.,Ltd, Shanghai, China). All the procedures were conducted according to manufacturers’ instructions. All test specimens (plasma samples, blank and calibration samples) were done in flat bottom 96 well microplates; 2.5 µL serum or calibration, 250 µL solution were pipetted into each well of the microplate, and the blank control contain water. The results were tested at 37 °C for 10 min and an absorbance value of 505 nm in a continuous monitoring micro plate reader. Glucose concentration (mmol/L) = (sample tube absorbent/calibration tube absorbent) × calibration fluid concentration (5.55 mmol/L). All experiments were repeated two duplicates.
# [2] = Plasma insulin concentration in T2DM rats (Rat INS ELISA Kit); type: in vivo
# Experimental: Insulin concentration in the plasma was determined by Rat INS ELISA Kit (Zeye Biotechnology Co., Ltd., Shanghai, China). All the procedures were conducted according to manufacturers’ instructions. Test specimens (plasma samples, blank and calibration samples) were added to an antibody-coated 96-well plate followed by addition of biological agent and enzyme conjugate solution, these mixtures incubated 30 min at 37 °C. The plate was then washed after incubation and a mixture of chromogenic reagent A and B was added. Optical density values at 450 nm were measured after terminating the reaction, and insulin concentrations were calculated according to the standard curve within a range of 0–20 mU/L (0, 1.25, 2.5, 5, 10, 20 mU/L).
# [3] = cited from earlier work
# [4] = Stability of analytes in QC rat plasma (UPLC-MS/MS); type: physicochemical; details: for Stability, autosampler at 4 °C for up to 16 h (% of nominal): extracted plasma samples; for Stability, autosampler at 4 °C for up to 16 h (% of nominal) / Stability, 4 °C for 12 h (% of nominal) / Stability, freeze-thaw three cycles (% of nominal) / Stability, room temperature for 4 h (% of nominal) / Stability, −80 °C for 7 days (% of nominal): n = 3; for Stability, 4 °C for 12 h (% of nominal) / Stability, freeze-thaw three cycles (% of nominal) / Stability, room temperature for 4 h (% of nominal) / Stability, −80 °C for 7 days (% of nominal): rat plasma; for stability in plasma under storage conditions: room temperature (25 °C) 4 h, 4 °C 12 h, −80 °C 7 days, three freeze-thaw cycles, autosampler 4 °C up to 16 h
# Experimental: The stability of analytes in QC plasma was evaluated by analyzing replicates (n = 3) of LQC, MQC, HQC samples placed on storage for 4 h at room temperature (25 °C), for 12 h at 4 °C, for 7 days at −80 °C, and after three freeze-thaw cycles from −80 °C to room temperature. […]
# [5] = Pharmacokinetic measurements in T2DM rats (plasma concentrations by UPLC-MS/MS, two-compartment PK model); type: in vivo; details: for C5ohsax, observed plasma concentration: individual rats
# Experimental: . Plasma was obtained by centrifugation at 3000 r/min and stored at −80 °C until analysis.
# Plasma concentrations of analytes were determined using the UPLC-MS/MS method above. […].
# [6] = i.g. 10 mg/kg SAX vs 0.5% CMC-Na
# [7] = high QC: spiked 2000 ng/mL SAX, 400 ng/mL 5-OH SAX
# [8] = low QC: spiked 15 ng/mL SAX, 3 ng/mL 5-OH SAX
# [9] = T2DM rats, i.g. 10 mg/kg SAX, two-compartment model with first order absorption, mean (n = 3)
# [10] = T2DM rats, i.v. 0.5 mg/kg 5-OH SAX, Subject1, Subject2, Subject3, 0.5 mg/kg
# [11] = T2DM rats, i.v. 0.5 mg/kg 5-OH SAX, two-compartment model, mean (n = 3)
structure (smiles),measurement,setting,value
"N#C[C@@H]1C[C@@H]2C[C@@H]2N1C(=O)[C@@H](N)C12CC3CC(CC(O)(C3)C1)C2 [SAX, Saxagliptin]",blood glucose compared to the control group,[1]; [6],no significant differences
same,insulin compared to the control group,[2]; [6],no significant differences
same,share of the dose metabolized in the liver by CYP3A4/5 to 5-OH SAX,[3],about 50%
same,bioavailability,[3]; oral 5 mg SAX,75%
same,"Stability, autosampler at 4 °C for up to 16 h (% of nominal)",[4]; [7],98.05 ± 2.04%
same,"Stability, autosampler at 4 °C for up to 16 h (% of nominal)",[4]; [8],99.02 ± 2.00%
same,"Stability, 4 °C for 12 h (% of nominal)",[4]; [7],99.09 ± 2.02%
same,"Stability, freeze-thaw three cycles (% of nominal)",[4]; [7],95.84 ± 1.52%
same,"Stability, room temperature for 4 h (% of nominal)",[4]; [7],99.59 ± 3.47%
same,"Stability, −80 °C for 7 days (% of nominal)",[4]; [7],98.07 ± 2.07%
same,"Stability, 4 °C for 12 h (% of nominal)",[4]; [8],100.60 ± 2.29%
same,"Stability, freeze-thaw three cycles (% of nominal)",[4]; [8],96.71 ± 1.93%
same,"Stability, room temperature for 4 h (% of nominal)",[4]; [8],99.02 ± 2.02%
same,"Stability, −80 °C for 7 days (% of nominal)",[4]; [8],98.56 ± 2.14%
same,stability in plasma under storage conditions,[4],remained stable
same,CL2 (clearance rate of peripheral compartment),[5]; [9],284.8403 mL/min/kg
same,CL (clearance rate of central compartment),[5]; [9],3245.80 mL/h/kg
same,K12,[5]; [9],6.62 h⁻¹
same,K21,[5]; [9],1.07 h⁻¹
same,V2 (apparent distribution volume of peripheral compartment),[5]; [9],18393.30 mL/kg
same,V (apparent distribution volume of central compartment),[5]; [9],2307.24 mL/kg
same,Tmax,"[5]; rat, plasma, po, 10 mg/kg",6.6 min
same,half-life,"[5]; rat, plasma, po, 10 mg/kg, T2DM rats, i.g. 10 mg/kg SAX, two-compartment model with first order absorption, mean (n = 3), read-out: t1/2Ka (absorption phase half-life) (converted)",4.2 min
same,half-life,"[5]; rat, plasma, po, 10 mg/kg, T2DM rats, i.g. 10 mg/kg SAX, two-compartment model with first order absorption, mean (n = 3), read-out: t1/2a (distribution phase half-life) (converted)",4.8 min
same,half-life,"[5]; rat, plasma, po, 10 mg/kg, T2DM rats, i.g. 10 mg/kg SAX, two-compartment model with first order absorption, mean (n = 3), read-out: t1/2β (elimination half-life) (converted)",368 min
same,AUC,"[5]; rat, plasma, po, 10 mg/kg, read-out: AUC",3280 ng·h/mL
same,Cmax,"[5]; rat, plasma, po, 10 mg/kg, read-out: Cmax",2200 ng/mL
"N#C[C@@H]1C[C@@H]2C[C@@H]2N1C(=O)[C@@H](N)C12CC3CC(O)(CC(O)(C3)C1)C2 [5-OH SAX, 5-hydroxy Saxagliptin]",blood glucose compared to the control group,"[1]; tail vein 0.5 mg/kg 5-OH SAX vs saline, 0.08, 0.17, 0.25 and 0.5 h (P<0.05)",significant differences
same,insulin compared to the control group,"[2]; tail vein 0.5 mg/kg 5-OH SAX vs saline, within the sampling range",no significant differences
same,systemic exposure in plasma relative to the parent drug SAX,[3]; after SAX,about 3 times
same,"Stability, autosampler at 4 °C for up to 16 h (% of nominal)",[4]; [7],101.22 ± 2.47%
same,"Stability, autosampler at 4 °C for up to 16 h (% of nominal)",[4]; [8],100.44 ± 3.10%
same,"Stability, 4 °C for 12 h (% of nominal)",[4]; [7],99.32 ± 2.66%
same,"Stability, freeze-thaw three cycles (% of nominal)",[4]; [7],95.79 ± 2.16%
same,"Stability, room temperature for 4 h (% of nominal)",[4]; [7],98.51 ± 2.19%
same,"Stability, −80 °C for 7 days (% of nominal)",[4]; [7],97.49 ± 2.52%
same,"Stability, 4 °C for 12 h (% of nominal)",[4]; [8],100.67 ± 2.52%
same,"Stability, freeze-thaw three cycles (% of nominal)",[4]; [8],94.89 ± 2.91%
same,"Stability, room temperature for 4 h (% of nominal)",[4]; [8],99.78 ± 2.22%
same,"Stability, −80 °C for 7 days (% of nominal)",[4]; [8],95.11 ± 4.55%
same,stability in plasma under storage conditions,[4],remained stable
same,"AUC, individual rats",[5]; [10],691.49 ng·h/mL and 452.17 ng·h/mL and 611.48 ng·h/mL
same,"Cl2, individual rats",[5]; [10],494.78 mL/h/kg and 513.24 mL/h/kg and 406.78 mL/h/kg
same,"Cl, individual rats",[5]; [10],723.08 mL/h/kg and 1105.79 mL/h/kg and 817.70 mL/h/kg
same,"K12, individual rats",[5]; [10],4.85 h⁻¹ and 2.93 h⁻¹ and 2.76 h⁻¹
same,"K21, individual rats",[5]; [10],3.41 h⁻¹ and 3.53 h⁻¹ and 3.31 h⁻¹
same,"V2, individual rats",[5]; [10],145.22 mL/kg and 145.45 mL/kg and 122.77 mL/kg
same,"V, individual rats",[5]; [10],101.99 mL/kg and 175.09 mL/kg and 147.39 mL/kg
same,"t1/2a, individual rats",[5]; [10],3 min and 3.6 min and 4.2 min
same,"t1/2β, individual rats",[5]; [10],23.4 min and 19.8 min and 22.2 min
same,"C5ohsax, observed plasma concentration","[5]; T2DM rats, i.v. 0.5 mg/kg 5-OH SAX, nominal time 0.08 h, 0.5 mg/kg",1610.00 ng/mL and 1240.00 ng/mL
same,"C5ohsax, observed plasma concentration","[5]; T2DM rats, i.v. 0.5 mg/kg 5-OH SAX, nominal time 0.17 h, 0.5 mg/kg",972.00 ng/mL and 684.00 ng/mL and 900.00 ng/mL
same,"C5ohsax, observed plasma concentration","[5]; T2DM rats, i.v. 0.5 mg/kg 5-OH SAX, nominal time 0.25 h, 0.5 mg/kg",595.00 ng/mL and 387.00 ng/mL and 550.00 ng/mL
same,"C5ohsax, observed plasma concentration","[5]; T2DM rats, i.v. 0.5 mg/kg 5-OH SAX, nominal time 0.50 h, 0.5 mg/kg",295.00 ng/mL and 192.00 ng/mL and 235.00 ng/mL
same,"C5ohsax, observed plasma concentration","[5]; T2DM rats, i.v. 0.5 mg/kg 5-OH SAX, nominal time 0.75 h, 0.5 mg/kg",150.00 ng/mL and 91.70 ng/mL and 149.00 ng/mL
same,"C5ohsax, observed plasma concentration","[5]; T2DM rats, i.v. 0.5 mg/kg 5-OH SAX, nominal time 2.00 h, 0.5 mg/kg",20.60 ng/mL and 8.16 ng/mL and 11.60 ng/mL
same,AUC,[5]; [11],585.04 ng·h/mL
same,CL2 (clearance rate of peripheral compartment),[5]; [11],7.86 mL/min/kg
same,CL (clearance rate of central compartment),[5]; [11],882.19 mL/h/kg
same,Cmax,[5]; [11],3716.88 ng/mL
same,K12,[5]; [11],3.51 h⁻¹
same,K21,[5]; [11],3.42 h⁻¹
same,V2 (apparent distribution volume of peripheral compartment),[5]; [11],137.81 mL/kg
same,V (apparent distribution volume of central compartment),[5]; [11],141.49 mL/kg
same,t1/2a (distribution phase half-life),[5]; [11],3.6 min
same,t1/2β (elimination half-life),[5]; [11],21.6 min
